Measurements reported in ChEMBL document CHEMBL5316324, “Discovery, Characterization, and Engineering of LvIC, an α4/4-Conotoxin That Selectively Blocks Rat α6/α3β4 Nicotinic Acetylcholine Receptors” (J Med Chem, 2023).
Peptide text beside a SMILES is read from it.

Tested on: Oocyte
Assay: Inhibition of rat alpha6/alpha3 E34M mutant beta4 nAChR expressed in Stage V-VI Xenopus laevis Oocytes assessed as inhibition of acetylcholine-induced current by measuring recovery at 10 uM preincubated with compound for 5 mins followed by washout in presence of acetylcholine by electrophysiological recording
Type: cell-based
Set-up: scale not given: the % may be the effect or the level left

CC(C)[C@H](NC(=O)[C@@H]1CCCN1C(=O)[C@H](CC(N)=O)NC(=O)[C@H](C)NC(=O)[C@H](CS)NC(=O)[C@H](CS)NC(=O)[C@@H](N)CCCNC(=N)N)C(=O)N[C@@H](CS)C(=O)N[C@@H](CC(N)=O)C(=O)NCC(=O)N[C@@H](CCCCN)C(=O)N[C@@H](Cc1cnc[nH]1)C(=O)N[C@@H](CS)C(N)=O (H-RCCANPVCNGKHC-NH2)
Activity: 70%
